Results: patent US12655130B2 (ASSEMBLY BIOSCIENCES, INC., priority 2020, dated 2026)
Like-named read-outs stand apart in the source and are kept apart here.

System: HBV viral load (viral production from HepAD38 cells)
Test: Activity of test compounds on viral production from HepAD38 cells (viral load by qPCR of HBV core sequence)
Type: cell-based
Protocol: Assay Measuring Activity of Test Compounds on Viral Production from HepAD38 Cells
HepAD38 cells grown in a T-150 flask (Corning, cat #: 430825) with Growth Medium (DMEM/F12 (1:1) (Hyclone, cat #: SH30023.02), 1× Pen/Strep (Invitrogen, cat #: 15140-122), 10% FBS (Tissue Culture Biologics, cat #: 101), 250 μg/mL G418 (Alfa Aesar, cat #: J62671), 1 μg/mL Tetracycline (Teknova, cat #: T3320)) were detached with 0.25% trypsin-EDTA (Invitrogen, cat #: 25200-056). Tetracycline-free treatment medium (15 mL DMEM/F12 (1:1) 1× Pen/step, with 2% FBS, Tet-system approved (Clontech, cat #: 631106) were then added to mix, transferred into a 50 ml conical tube (Falcon, cat #: 21008-918) and spun at 1300 rpm for 5 min. Pelleted cells were then re-suspended/washed with 50 mL of 1×DPBS (Invitrogen, cat #: 14190-136) 2 times and 50 mL treatment medium twice. HepAD38 cells were then re-suspended with 10 mL of treatment medium, syringed and counted. Wells of 96-well clear bottom TC plate (Corning, cat #: 3904) were seeded at 50,000 cells/well in 180 μL of treatment medium, and 20 μL of either 10% DMSO (Sigma, cat #: D4540) as controls or a 10× solution of test compounds in 10% DMSO in treatment media was added for a final compound concentration starting at 10 μM, and plates were incubated in 5% CO2 incubator at 37° C. for 5 days.
Subsequently viral load production was assayed by quantitative PCR (qPCR) of the HBV core sequence. PCR reaction mixture containing forward primers HBV-f 5′-CTGTGCCTTGGGTGGCITT-3′ (IDT DNA), Reverse primers HBV-r 5′-[…]-3′ (IDT DNA), Fluorescent TaqMan™ Probes HBV-probe 5′-FAM/AGCTCCAAA/ZENMITCTITATAAGGGTCGATGTC/3IABkFQ-3′ (IDT DNA), 10 μL/well of PerfeCTa® qPCR ToughMix® (Quanta Biosciences, Cat #: 95114-05K), and 6 μL/well of DEPC water (Alfa Aesar, cat #: J62087) was prepared. Four μL of supernatant was added to 16 μL of the reaction mixture in a qPCR plate (Applied Biosytems, Cat #: 4309849), sealed with a film (Applied Biosystems, Cat #: 4311971), centrifuged for a few seconds, and subsequently run on an Applied Biosystems VIIA7. The PCR mixture was incubated at 45° C. for 5 min, then 95° C. for 10 min, followed by 40 cycles of 10 seconds at 95° C. and 20 seconds at 60° C. Viral load was quantified against known HBV DNA standards by using ViiA™ 7 Software. Viral load in the supernatant from wells with treated cells were compared against viral load in supernatant from DMSO control wells (3 per plate). Cell viability assay was performed with CellTiter-Glo Luminescent Cell Viability Assay (Promega, cat #: G7573) with modification. Mixed appropriate amount of CellTiter-Glo (CTG) 1×DPBS in a 1:1 ratio, added 100 uL of the mixture to each well followed completely removal of all supernatant in each well without touching cell surface. Incubated the plate at room temperature for 10 min on an orbital shaker, and then read the plate with a plate reader (TECAN M1000 or Envision). EC50 or CC50 values were calculated through curve-fitting of the four-parameter nonlinear-logistic-regression model (GraphPad Prism or Dotmatics). CC50 values were all >10 μM.

[1] = Hepatitis B virus, HePAD38, 120 h, viral load lowering, 5 days, qPCR of supernatant, read-out: VL HepAD38 EC50 range

SMILES	EC50 [1]	EC50 (read-out: VL HepAD38 EC50 range, viral load lowering, 5 days, qPCR of supernatant)
CCOC(=O)CC1CC2CC(c3ncn(C)c3C(=O)Nc3ccc(F)c(Cl)c3)CC2C1 (centres unmarked) [Example 16, Ethyl 2-(5-(5-((3-chloro-4-fluorophenyl)carbamoyl)-1-methyl-1H-imidazol-4-yl)octahydropentalen-2-yl)acetate]	< 10 nM	
Cn1cnc(C2CC3CC(CC(N)=O)CC3C2)c1C(=O)Nc1ccc(F)c(Cl)c1 (centres unmarked) [Example 17, 4-(5-(2-Amino-2-oxoethyl)octahydropentalen-2-yl)-N-(3-chloro-4-fluorophenyl)-1-methyl-1H-imidazole-5-carboxamide]	< 10 nM	
CN1CCN(C2CC3CC(c4ncn(C)c4C(=O)Nc4ccc(F)c(Cl)c4)CC3C2)CC1 (centres unmarked) [Example 18, N-(3-Chloro-4-fluorophenyl)-1-methyl-4-(5-(4-methylpiperazin-1-yl)octahydropentalen-2-yl)-1H-imidazole-5-carboxamide]	10 to 50 nM	
Cn1c(Cl)nc(C2CC3CC(=O)CC3C2)c1C(=O)Nc1ccc(F)c(Cl)c1 (centres unmarked) [Example 21, 2-Chloro-N-(3-chloro-4-fluorophenyl)-1-methyl-4-(5-oxooctahydropentalen-2-yl)-1H-imidazole-5-carboxamide]	< 10 nM	
Cn1c(Cl)nc(C2CC3CC(O)CC3C2)c1C(=O)Nc1ccc(F)c(Cl)c1 (centres unmarked) [Example 22, 2-Chloro-N-(3-chloro-4-fluorophenyl)-4-(5-hydroxyoctahydropentalen-2-yl)-1-methyl-1H-imidazole-5-carboxamide]	< 10 nM	
Cc1nc(C2CC3CC(=O)CC3C2)c(C(=O)Nc2ccc(F)c(Cl)c2)n1C (centres unmarked) [Example 23, N-(3-Chloro-4-fluorophenyl)-1,2-dimethyl-4-(5-oxooctahydropentalen-2-yl)-1H-imidazole-5-carboxamide]	< 10 nM	
Cc1nc(C2CC3CC(O)CC3C2)c(C(=O)Nc2ccc(F)c(Cl)c2)n1C (centres unmarked) [Example 24, N-(3-Chloro-4-fluorophenyl)-4-(5-hydroxyoctahydropentalen-2-yl)-1,2-dimethyl-1H-imidazole-5-carboxamide]	< 10 nM	
Cc1nc(C2CC3CC(O)(CS(C)(=O)=O)CC3C2)c(C(=O)Nc2ccc(F)c(Cl)c2)n1C (centres unmarked) [Example 25, N-(3-Chloro-4-fluorophenyl)-4-(5-hydroxy-5-((methylsulfonyl)methyl)octahydropentalen-2-yl)-1,2-dimethyl-1H-imidazole-5-carboxamide]	< 10 nM	
Cc1nc(C2CC3CC(O)(C(F)(F)F)CC3C2)c(C(=O)Nc2ccc(F)c(Cl)c2)n1C (centres unmarked) [Example 26, N-(3-Chloro-4-fluorophenyl)-4-(5-hydroxy-5-(trifluoromethyl)octahydropentalen-2-yl)-1,2-dimethyl-1H-imidazole-5-carboxamide]	10 to 50 nM	
Cn1c(N)nc(C2CC3CC(O)CC3C2)c1C(=O)Nc1ccc(F)c(Cl)c1 (centres unmarked) [Example 28, 2-Amino-N-(3-chloro-4-fluorophenyl)-4-(5-hydroxyoctahydropentalen-2-yl)-1-methyl-1H-imidazole-5-carboxamide]	< 10 nM	
CNc1nc(C2CC3CC(=O)CC3C2)c(C(=O)Nc2ccc(F)c(Cl)c2)n1C (centres unmarked) [Example 29, N-(3-Chloro-4-fluorophenyl)-1-methyl-2-(methylamino)-4-(5-oxooctahydropentalen-2-yl)-1H-imidazole-5-carboxamide]	10 to 50 nM	
CNc1nc(C2CC3CC(O)CC3C2)c(C(=O)Nc2ccc(F)c(Cl)c2)n1C (centres unmarked) [Example 30, N-(3-Chloro-4-fluorophenyl)-4-(5-hydroxyoctahydropentalen-2-yl)-1-methyl-2-(methylamino)-1H-imidazole-5-carboxamide]	< 10 nM	
O=C1CC2CC(c3nc4n(c3C(=O)Nc3ccc(F)c(Cl)c3)CCC4)CC2C1 (centres unmarked) [Example 31, N-(3-Chloro-4-fluorophenyl)-2-(5-oxooctahydropentalen-2-yl)-6,7-dihydro-5H-pyrrolo[1,2-a]imidazole-3-carboxamide]	< 10 nM	
O=C(Nc1ccc(F)c(Cl)c1)c1ocnc1C1CC2CC(O)CC2C1 (centres unmarked) [Example 36, N-(3-Chloro-4-fluorophenyl)-4-(5-hydroxyoctahydropentalen-2-yl)oxazole-5-carboxamide]	50 to 500 nM	
O=C(Nc1ccc(F)c(Cl)c1)c1sc(C(F)(F)F)nc1C1CC2CC(O)CC2C1 (centres unmarked) [Example 37, N-(3-chloro-4-fluorophenyl)-4-(5-hydroxyoctahydropentalen-2-yl)-2-(trifluoromethyl)thiazole-5-carboxamide]	50 to 500 nM	
O=C1CC2CC(c3ncsc3C(=O)Nc3ccc(F)c(Cl)c3)CC2C1 (centres unmarked) [Example 38, N-(3-Chloro-4-fluorophenyl)-4-(5-oxooctahydropentalen-2-yl)thiazole-5-carboxamide]	< 10 nM	
O=C(Nc1ccc(F)c(Cl)c1)c1scnc1C1CC2CC(O)CC2C1 (centres unmarked) [Example 39, N-(3-Chloro-4-fluorophenyl)-4-(5-hydroxyoctahydropentalen-2-yl)thiazole-5-carboxamide]	< 10 nM	
O=C1CC2CC(c3nc4n(c3C(=O)Nc3ccc(F)c(Cl)c3)CCCC4)CC2C1 (centres unmarked) [Example 40, 2-[-5-Oxo-2,3,3a,4,6,6a-hexahydro-1H-pentalen-2-yl]-N-(3-chloro-4-fluorophenyl)-5,6,7,8-tetrahydroimidazo[1,2-a]pyridine-3-carboxamide]		50 to 500 nM
CCNc1nc(C2CC3CC(O)CC3C2)c(C(=O)Nc2ccc(F)c(Cl)c2)n1C (centres unmarked) [Example 41, 5-[-5-Hydroxy-1,2,3,3a,4,5,6,6a-octahydropentalen-2-yl]-N-(3-chloro-4-fluorophenyl)-2-(ethylamino)-3-methyl-4-imidazolecarboxamide]	10 to 50 nM	
Cn1c(C#N)nc(C2CC3CC(O)CC3C2)c1C(=O)Nc1ccc(F)c(Cl)c1 (centres unmarked) [Example 42, 5-[-5-Hydroxy-1,2,3,3a,4,5,6,6a-octahydropentalen-2-yl]-N-(3-chloro-4-fluorophenyl)-2-cyano-3-methyl-4-imidazolecarboxamide]	10 to 50 nM	
CN(C)C1CC2CC(c3ncn(C)c3C(=O)Nc3ccc(F)c(Cl)c3)CC2C1 (centres unmarked) [Example 43, 5-[5-(Dimethylamino)-1,2,3,3a,4,5,6,6a-octahydropentalen-2-yl]-N-(3-chloro-4-fluorophenyl)-3-methyl-4-imidazolecarboxamide]	10 to 50 nM	
Cn1cnc(C2CC3CC(N4CCCCC4)CC3C2)c1C(=O)Nc1ccc(F)c(Cl)c1 (centres unmarked) [Example 46, 5-[-5-(1-Piperidinyl)-1,2,3,3a,4,5,6,6a-octahydropentalen-2-yl]-N-(3-chloro-4-fluorophenyl)-3-methyl-4-imidazolecarboxamide]	10 to 50 nM	
Cn1cnc(C2CC3CC(N4CCOCC4)CC3C2)c1C(=O)Nc1ccc(F)c(Cl)c1 (centres unmarked) [Example 47, 5-[-5-(4-Morpholinyl)-1,2,3,3a,4,5,6,6a-octahydropentalen-2-yl]-N-(3-chloro-4-fluorophenyl)-3-methyl-4-imidazolecarboxamide]	50 to 500 nM	
CN(Cc1ccccc1)c1nc(C2CC3CC(O)CC3C2)c(C(=O)Nc2ccc(F)c(Cl)c2)n1C (centres unmarked) [Example 48, 2-(benzyl(methyl)amino)-N-(3-chloro-4-fluorophenyl)-4-(5-hydroxyoctahydropentalen-2-yl)-1-methyl-1H-imidazole-5-carboxamide]	50 to 500 nM	
CCNc1nc(C2CC3CC(=O)CC3C2)c(C(=O)Nc2ccc(F)c(Cl)c2)n1C (centres unmarked) [Example 49, N-(3-chloro-4-fluorophenyl)-2-(ethylamino)-1-methyl-4-(5-oxooctahydropentalen-2-yl)-1H-imidazole-5-carboxamide]	50 to 500 nM	
Cn1cnc(C2CC3CC(O)(c4cc(N)nn4C)CC3C2)c1C(=O)Nc1ccc(F)c(Cl)c1 (centres unmarked) [Example 51, 4-(5-(3-Amino-1-methyl-1H-pyrazol-5-yl)-5-hydroxyoctahydropentalen-2-yl)-N-(3-chloro-4-fluorophenyl)-1-methyl-1H-imidazole-5-carboxamide]	< 10 nM	
